Experiment [1] has as its target T1, Cathepsin K (Homo sapiens, UniProt P43235).
T1 sequence (P43235 whole entry): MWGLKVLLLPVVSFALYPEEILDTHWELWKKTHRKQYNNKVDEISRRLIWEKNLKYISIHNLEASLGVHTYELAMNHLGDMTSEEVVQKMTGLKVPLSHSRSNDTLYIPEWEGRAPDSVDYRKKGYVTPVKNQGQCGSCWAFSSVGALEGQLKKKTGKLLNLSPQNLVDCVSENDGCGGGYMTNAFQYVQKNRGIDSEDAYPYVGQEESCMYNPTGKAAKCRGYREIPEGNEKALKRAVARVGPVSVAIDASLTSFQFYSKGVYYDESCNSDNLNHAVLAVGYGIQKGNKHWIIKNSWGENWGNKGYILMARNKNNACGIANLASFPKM
The experiment in a line: Inhibition of cathepsin K.

Experiment [2] deals with T1, Cathepsin K. Nature of the experiment: Inhibitory activity was evaluated against cathepsin K.

Turning to `COc1ccc(CC(=O)N[C@@H](CC(C)C)C(=O)NC2CCOCC2=O)cc1OC` (some centres not stated), the values for the Ki in experiment [1] and in experiment [2] were 10 nM and 770 nM, respectively.

In turn, `CC(C)C[C@H](NC(=O)c1ccc2ccccc2c1)C(=O)N[C@H]1COCC1=O` displayed a Ki in experiment [1] of 14 nM.

Regarding `CC(C)C[C@H](NC(=O)c1cc2ccccc2s1)C(=O)NC1CCOCC1=O` (single isomer, unassigned; diastereomer 1), in experiment [1], the Ki turned out to be 8 nM. In the case of `CC(C)C[C@H](NC(=O)c1ccc2ccccc2c1)C(=O)NC1CCOCC1=O` (single isomer, unassigned; diastereomer 2), the Ki in experiment [1] stood at 380 nM. Turning to `CC(C)C[C@H](NC(=O)c1cc2ccccc2s1)C(=O)N[C@H]1COCC1=O`, affinity in experiment [1] was put at a Ki of 7 nM. Consider `CC(C)C[C@H](NC(=O)c1cc2ccccc2s1)C(=O)NC1CCOCC1=O` (single isomer, unassigned; diastereomer 2), for which, in experiment [1], affinity was put at a Ki of 70 nM. In turn, `CC(C)C[C@H](NC(=O)c1ccc2ccccc2n1)C(=O)N[C@H]1COCC1=O` came in with a Ki in experiment [1] of 15 nM. Compared with the last compound, the Ki is about 4.7-fold lower. Take `CC(C)C[C@H](NC(=O)c1ccc2ccccc2c1)C(=O)NC1CCOCC1=O` (single isomer, unassigned; diastereomer 1): the Ki in experiment [1] turned out to be 32 nM. Same read-out and setting: for `CC(C)C[C@@H](NC(=O)c1ccc2ccccc2n1)C(=O)N[C@@H]1COCC1=O` the value was 590 nM; for `CC(C)C[C@@H](NC(=O)c1ccc2ccccc2c1)C(=O)N[C@@H]1COCC1=O`, 470 nM; for `CC(C)C[C@@H](NC(=O)c1cc2ccccc2s1)C(=O)N[C@@H]1COCC1=O`, 68 nM.

By Ki is commonly meant the dissociation constant of the complex between target and ligand, obtained from inhibition or displacement. Read a high Ki as weaker binding.
